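Assay format: 96-well plates, 48-hour exposure. TGI denotes the concentration required for complete inhibition of growth.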

Common to all, as to assay: DTP human tumour cell line panel, 48 h
The test system of assay [1] is UO-31 renal.
Assay [2] deals with HT29 colon.
The subject of assay [3] is SNB-75 CNS.
Assay [4] deals with MDA-N.
The test system of assay [5] is HCC-2998 colon.
Assay [6] has as its system SN12C renal.
Assay [7] relates to BT-549 breast.
The subject of assay [8] is MALME-3M melanoma.
The test system of assay [9] is HS 578T breast.
In assay [10] the test system is SF-539 CNS.
Assay [11] relates to NCI/ADR-RES ovarian.
Assay [12] relates to HCT-116 colon.

One may read the TGI as the concentration giving total growth inhibition. On to `CC1(O)/C(=N/O)CC2CC1C2(C)C` (stereo unspecified), for which the TGI in assay [1], in [2], in [3], in [4], in assay [5] and in [6] was more than 100 µM each time. Also, the TGI in [7], in assay [8] and in assay [9] was more than 100 µM throughout.

Turning to `OC1CC(O)c2c(Cl)sc(Cl)c21` (stereo unspecified), the TGI is 77.5 µM in [1]; more than 100 µM in assay [2]; 49.2 µM in [3]; more than 100 µM in assay [4]; more than 100 µM in assay [6]; more than 100 µM in assay [7]. For the same compound, the TGI is more than 100 µM in assay [10]; more than 100 µM in assay [11]; more than 100 µM in [8]; more than 100 µM in assay [12]; 82.4 µM in assay [9].

Turning to `COC1OC(CO)C(O)C(OC(=O)c2cc(O)c(O)c(O)c2)C1OC(=O)c1cc(O)c(O)c(O)c1` (stereo unspecified), the TGI was more than 100 µM in [1]; more than 100 µM in assay [2]; more than 100 µM in [3]; 55.7 µM in assay [4]; more than 100 µM in assay [6]; more than 100 µM in assay [7]. Also, the TGI in assay [10], in assay [11], in [8], in [12] and in [9] was more than 100 µM throughout.

For the compound `CNC(=O)CCNC(=O)CCC(=O)OC`, the total growth inhibition concentration (TGI) in assay [1], in assay [2], in assay [4], in [6], in assay [10] and in [11] was more than 100 µM in each case. The compound also registered a TGI in assay [12] of more than 100 µM.

With `Cc1ccc(S(=O)(=O)NNC(=S)Nc2cccc3ccccc23)cc1`, the TGI in [1] was more than 100 µM; in assay [2], more than 100 µM; in assay [3], 77.5 µM; in [4] it was more than 100 µM; in assay [5], more than 100 µM; in [6] it was more than 100 µM. Further, the TGI in assay [10], in [11], in assay [8], in assay [12] and in assay [9] was more than 100 µM in each case.

Turning to `Cc1cc2c(s1)C(=O)c1sccc1C2=O`, the TGI came out at 2.29 µM in assay [1]; 4.3 µM in assay [2]; 1.18 µM in assay [3]; 0.308 µM in [4]; 3.15 µM in [5]; 1.25 µM in assay [6]. The TGI in assay [10] came to 0.622 µM; in assay [11] it was 1.64 µM; in assay [8], 0.311 µM; in assay [12] it was 2.46 µM; in assay [9], 2.52 µM.

Consider `CC1N(C)C(=O)OC12CCN(CCCC(=O)c1ccc(F)cc1)CC2` (stereo unspecified), for which the TGI in assay [1], in [2], in assay [3], in assay [4], in assay [6] and in [7] was more than 100 µM throughout. The TGI in assay [10], in [11], in assay [8], in assay [12] and in assay [9] was more than 100 µM each time.

Consider `NC1=NC(OCC2(CO)CCC2)C=C(NCC2(CO)CCC2)N1` (stereo unspecified), for which the TGI in [1], in assay [2], in assay [3], in assay [4], in [5] and in [6] was more than 100 µM throughout. Also, the TGI in assay [7], in assay [11], in assay [8], in [12] and in assay [9] was more than 100 µM in each case.

For the compound `CC1C[C@]2(C)C(=S)Nc3ccccc3[C@@H]2Nc2ccccc21` (stereo partly specified), the TGI amounted to 32.8 µM in assay [1]; 26.6 µM in assay [2]; 61 µM in assay [3]; 37.4 µM in [4]; 40.6 µM in [5]; 37.5 µM in [6]. In addition, the TGI in [10] came to 34.2 µM; in assay [11] it was 36.6 µM; in assay [8], 30.8 µM; in [12] it was 26.7 µM; in [9] it was 85.5 µM.

Turning to `CC1[C@@H](OCc2ccccc2)COC(=O)N1Cc1ccccc1` (stereo partly specified), the TGI in [1], in [2], in assay [3], in assay [4], in assay [6] and in assay [11] was more than 100 µM each time. In addition, the TGI in [8], in assay [12] and in assay [9] was more than 100 µM in each case.

Turning to `CNC(=O)c1n[nH][nH]c1=O`, the TGI in assay [1], in assay [2], in [3], in assay [4], in assay [5] and in [6] was more than 100 µM in each case. Moreover, the TGI in assay [11], in assay [8], in assay [12] and in [9] was more than 100 µM each time.

`NC1CC(=O)c2cc(Br)sc21` (stereo unspecified): the TGI in assay [1], in [2], in [3], in assay [4], in assay [5] and in assay [6] was more than 100 µM each time. In addition, the TGI in assay [7], in assay [10], in [11], in assay [8] and in assay [12] was more than 100 µM in each case.

`CC(C)CC1c2[nH]c3ccccc3c2C[C@H]2C(=O)NC(CCC(=O)OC(C)(C)C)C(=O)N12` (stereo partly specified): the TGI in [1] was more than 100 µM; in assay [2] it was 43.1 µM; in assay [4], more than 100 µM; in [6], 70.8 µM; in assay [7], more than 100 µM; in assay [11] it was more than 100 µM. Moreover, the TGI was 62.2 µM in assay [8], more than 100 µM in [12] and 54.2 µM in assay [9].

On to `CC(=O)c1ccc2c(c1)oc(=O)n2CCN1CCCCC1`, for which the TGI in assay [2], in assay [4], in assay [6], in assay [7], in [10] and in [11] was more than 100 µM each time. The TGI in assay [8], in assay [12] and in assay [9] was more than 100 µM throughout.

On to `CC1=C(OC2OC(CO)C(O)C(O)C2O)C(=O)C[C@H]2C1=CC[C@@H]1[C@@]2(C)C(=O)C[C@]2(C)[C@@H]([C@@](C)(O)C(=O)CCC(C)(C)O)[C@H](O)C[C@@]12C` (stereo partly specified), for which the TGI in [1], in assay [2], in assay [3], in [4], in assay [5] and in assay [6] was more than 100 µM throughout. Also, the TGI in assay [7], in [10], in [11], in assay [8] and in assay [12] was more than 100 µM each time.

With `CCN(CC)CCS(=O)c1c2cc(OC)ccc2nc2ccc(OC)cc12` (stereo unspecified), the TGI was found to be 5.43 µM in [1]; 12 µM in assay [2]; 36 µM in assay [3]; 40.7 µM in assay [5]; 9.64 µM in assay [6]; 31.2 µM in assay [7]. In addition, the TGI in [10] came out at 6 µM; in [11] it was 52.6 µM; in [8], 2.51 µM; in [12] it was 4.55 µM; in assay [9], 29.1 µM.

With `C=C(C)[C@@H]1CC[C@]2(C(=O)O)CC[C@]3(C)[C@H](CC[C@@H]4[C@@]5(C)CC[C@H](C(=O)/C=C/c6ccc(O)cc6)C(C)(C)[C@@H]5CC[C@]43C)[C@@H]12`, the TGI in [1] turned out to be 18.4 µM; in assay [2], 45.4 µM; in [4], 18 µM; in assay [5], 11.4 µM; in assay [6], 10.4 µM; in assay [7], 38.5 µM. Besides, the TGI is 20.3 µM in assay [10]; 29.3 µM in assay [11]; 70.1 µM in assay [8]; more than 100 µM in [12]; 36.2 µM in assay [9].

For the compound `CC1OC(O[C@H]2CC[C@]3(C)[C@H]4CC=C5[C@@H]6[C@@H](C)[C@H](C)CC[C@]6(C(=O)O)CC[C@@]5(C(=O)O)[C@]4(C)CC[C@H]3C2(C)C)C(O)C(O)C1O` (stereo partly specified), the TGI in [1], in [3], in assay [4], in assay [5], in assay [6] and in [7] was more than 75 µM in each case. Besides, the TGI in assay [10], in [11], in assay [12] and in [9] was more than 75 µM in each case.

In the case of `CC(C)(C)N1NC1C1NN1C(C)(C)C` (stereo unspecified), the TGI in assay [1], in assay [2], in assay [3], in [4], in [5] and in assay [6] was more than 100 µM in each case. The TGI in assay [10], in [11], in [8], in assay [12] and in assay [9] was more than 100 µM in each case.

As to `C=C[C@@]1(C)CC(=O)[C@]2(O)[C@@]3(C)[C@@H](OC(C)=O)CCC(C)(C)[C@@H]3[C@H](OC(C)=O)[C@H](OC(C)=O)[C@@]2(C)O1`, the TGI in [1], in assay [2], in assay [3], in assay [4], in assay [5] and in [6] was more than 100 µM each time. Moreover, the TGI in [7], in [10], in assay [11] and in assay [12] was more than 100 µM throughout.

`CCC(=O)COc1ccc(NC(NC(=O)C(C(F)(F)F)C(F)(F)F)(C(F)(F)F)C(F)(F)F)cc1`: the TGI in assay [1] is more than 100 µM; in assay [2] it was 70.3 µM; in [3] it was 75.3 µM; in assay [4], 83.9 µM; in [5], more than 100 µM; in [10] it was 55.2 µM. Besides, the TGI in assay [11] is 42.7 µM; in assay [8], 77.7 µM; in assay [12], 67.6 µM; in assay [9], more than 100 µM.

Turning to `Cc1cc(Cl)ccc1N=NC(=O)NNc1ccc(Cl)cc1C`, the TGI in [1] worked out at 29.6 µM; in assay [2], 36.4 µM; in assay [3], 33.3 µM; in [4] it was 30.3 µM; in assay [5], 24.1 µM; in assay [6], 30.1 µM. Besides, the TGI in [7] was determined as 32.2 µM; in assay [8], 37.9 µM; in assay [12], 26.7 µM.

Turning to `C=C[C@H]1CN2CCc3c([nH]c4c([C@H]5CCCN5C)c(O)ccc34)[C@@H]2C[C@@H]1C[C@H]1c2[nH]c3ccccc3c2CCN1C`, the TGI in assay [1] was determined as 3.24 µM; in assay [2], 2.75 µM; in [3] it was 2.4 µM; in assay [4] it was 2.64 µM; in [5] it was 1.21 µM; in assay [6], 3.04 µM. The TGI in assay [7] was 3.72 µM; in assay [11], 3.38 µM; in [8] it was 3.19 µM; in assay [12] it was 2.61 µM; in [9] it was 4.59 µM.

As to `CC1NC(/C(=C/c2ccccc2O)NC(=O)c2ccccc2)OC1=O` (stereo unspecified), the TGI in assay [1], in [2], in assay [3], in assay [4], in [5] and in assay [6] was more than 50 µM throughout. The TGI in assay [7] was more than 50 µM; in assay [10] it was 48 µM; in assay [11], more than 50 µM; in assay [8] it was more than 50 µM; in [12], more than 50 µM.

As for `CSc1cc(Cl)c(C)cc1S(=O)(=O)NC(=O)NNc1ccc(F)c(Cl)c1`, the TGI in assay [2], in [3], in [4], in assay [5], in [6] and in [10] was more than 100 µM throughout. Besides, the TGI in assay [11], in assay [8], in assay [12] and in [9] was more than 100 µM each time.

(Values after PubChem BioAssay (NCI).)
